Assay results as given in patent US7217570B2, “Organotypic intestinal culture and methods of use thereof” (The Wistar Institute of Anatomy and Biology, priority 2001, dated 2007).
Entries after “also recorded” stand apart in the source; their conditions may differ. Where no end group is shown, it is not given here.

Experiments:
colonic epithelial cells [1] = experiment: Coating of artificial stroma or plastic with extracellular matrix proteins (Example 3); format: cell-based, human
From the text: Another embodiment of an organotypic culture prepared as described substantially as in Example 2, has an additional component. An extracellular matrix was applied to the organotypic cultures by coating the artificial stroma with matrix proteins Laminin-2 […] (Life Technologies, Rockville, Md.), Laminin-1 […] (Sigma), or Matrigel® gel matrix (Collaborative Research, Bedford, Mass.), which contains Laminin-1 and other matrix proteins, such as collagen IV and […] (Burgeson, R E., et al. 1994 Matrix Biol., 14:209–211 and Page, KC. et al. 1990 J. Biol. Reprod., 43:659–664). Fifty to 100 μl of base medium containing 20 ng/ml of laminins were added onto the surface of the artificial stroma for 60 minutes at 37° C. Matrigel® matrix was diluted 1:5 to 1:10 in base medium before use. After incubation, unbound laminins or Matrigel® matrix were removed by two washings with base medium. The organotypic cultures were incubated at 37° C. in 5% CO2 in growth medium, which was changed daily for 7 days, then three times per week for an additional 21 days. Growth and differentiation of colonic epithelium in growth medium was regulated by ECM components at the interface between the stroma and the epithelial layer. These ECM experiments were done in base medium, supplemented with LIF, SCF, ET3, EGF, insulin, and 1% FCS. […]

[2] = tested on: colorectal carcinoma cell line HT29; experiment: Growth of carcinoma cell line on laminin substrates; format: cell-based; conditions: Laminin-2 compared to Laminin-1
From the text: Quantitative analysis of the growth fractions confirmed that the different laminins control growth and differentiation. […] Enteric epithelial cells spread similarly on substrates of Laminins-2 and —I bound to plastic of culture dishes.

enteric epithelial cells = experiment: Growth factor modulation of organotypic culture in reduced or modified media (Example 2); format: cell-based, human; conditions: growth factor added individually to base medium (MCDB 201/L15, transferrin, antibiotics)
Experimental: To determine the role of growth factors on proliferation of colonic epithelial cells, this growth medium was modified by changing combinations of growth factors and deleting serum. Keratinocyte growth factor (KGF, R&D Systems) at 20 ng/ml was also tested as part of 23 growth factor combinations. Total relative cell numbers of a specific type were counted as an average of all nuclei counts from a minimum of 3 randomly selected cross-sections of a reconstruct. Goblet cells were counted based on their typical morphology and positive Alcian staining in at least 3 randomly selected slides. Proliferation rates in % were established by counting the number of BrdU or Ki-67-positive nuclei per total epithelial cell nuclei of section. Apoptotic cells were counted in H&E-stained sections (Vagunda, V. et al. 2000 Anal. Quant. Cytol. Histol., 22:307–310). Apoptotic bodies and nuclei were determined according to the size and numbers of the fragments. Apoptosis was calculated as percentage of total nuclei per section (Kerr, J F. et al. 1972 Br. J. Cancer, 26:239–257) To define the role of critical growth factors supporting growth and differentiation of the enteric epithelial cells, an organotypic culture, such as that described in Example 1, was grown in medium in which the number of supplements was reduced. In other experiments, the growth factors, including insulin, EGF, SCF, ET-3, KGF, bFGF, or AMF were added individually to the base medium (MCDB 201/L15 medium with transferrin and antibiotics). In each case, epithelial cell proliferation was not supported in the organotypic culture. In another experiment, the organotypic cultures were prepared by seeding epithelial cells on the artificial stroma in complete medium C or medium L/S/E or medium L. Medium C contained transferrin, insulin, bFGF, EGF, ET-3, HGF, LIF, SCF, AMF, and 1% FCS as supplements. L/S/E medium contained transferrin, insulin, LIF, SCF, ET-3, EGF, and 1% FCS. L medium contained transferrin, insulin, LIF, EGF, and 1% FCS. Sections of the cultures were stained with H&E and Alcian blue after 12 hours (day 0) and 4 days. Values were generated SD of 5 fields from 2 independent experiments. […] The L/S/E-supplemented base medium (LIF, SCF, ET-3, EGF, insulin, and 1% FCS) induced formation by day 4 of highly disorganized structures of stratified and pseudostratified epithelial cells. The epithelium was hyperplastic with morphological atypia. In contrast to results obtained with complete growth medium, only the upper surface rather than the entire artificial stroma was covered with epithelium.

colonic epithelial cells [3] = experiment: Proliferation of organotypic colon cultures in LIF-supplemented base medium (BrdU, 3H-thymidine, cell numbers per area); format: cell-based, human
Experimental: Colonic epithelial cells described above were seeded on top of collagen gels containing embedded fibroblasts described above in 0.4 ml of complete growth medium. After seeding onto the matrix of collagen type I with embedded fibroblasts, samples were incubated at 37° C. in 5% CO2 for 60–90 minutes in a low volume of medium (50–100 μl) to enhance attachment. The epithelial cells and clusters attached within 60 minutes. The wells were then filled with complete growth medium. Medium was changed daily for 10 days, then three times per week for an additional 21 days.
Proliferation of organotypic cultures was determined by adding bromodeoxyuridine (BrdU) to the medium according to the manufacturer's instructions (Amersham Pharmacia Biotech, Inc., Piscataway, N.J.). Thymidine incorporation was measured in cells, incubated with 1 μCi ^3H-thymidine/well for 18 hours before harvest and determination of radioactivity.
(§1) Cell numbers were determined per high-power field (0.11×0.18 mm) using 40× magnification as the mean (±SD) of 364 measurements. Constriction of collagen matrices was measured as the length of the longitudinal axis of collagen harvested on days 0.5, 4 and 10 (mean±SD of 32 measurements of 4 samples. Positive cells per area were counted in 12 consecutive fields per cross-section (mean±SD of 16 areas of 2 random cross-sections from 4 samples. Relative number of positive cells per area was expressed as mean±SD of positive/total cells from 16 areas of 2 random cross-sections for each sample. Statistical significance was tested using Student's t-test.

colonic epithelial cells [4] = experiment: Differentiated cells (goblet, enteroendocrine, carbonic anhydrase II) in organotypic colon cultures with LIF; format: cell-based, human
From the text: The organotypic cultures were characterized as follows. Harvested organotypic cultures were fixed in 1.5% paraformaldehyde and embedded in paraffin. For electron microscopy (EM), cultures were fixed in 4% glutaraldehyde. For histochemistry and immunohistochemistry, 5-μm thick sections were cut from the paraffin beds and stained with hematoxylin and eosin (H&E) or Alcian Blue using standard procedures.
Goblet cells were detected using Alcian Blue and EM. Enteroendocrine cells were identified by chromogranin A staining and EM. Immunohistochemical staining was done with monoclonal antibodies specific for: BrdU (Amersham), Ki67 (DAKO, Carpinteria, Calif.), α-smooth muscle actin (SMA) (Sigma), cytokeratin 19 (CK 19; antibody BA17 [33] kindly provided by Dr. J. Kovarik, Brno, Czech Rep.), chromogranin A (Novocastra, New Castle Upon Tyne, UK) and carbonic anhydrase II (The Binding Site Limited, Birmingham, UK). Immunohistochemistry was performed by standard techniques as described (Dai, C. Y. et al, 2000 Gastroenterology, 119, 929–942). Alkaline phosphatase activity of paraffin-embedded samples was detected using colorimetric substrate (AP Substrate Kit, SK 15100, Vector, Burlingame, Calif.).
as §1

fibroblasts = experiment: Constriction of collagen matrix by embedded fibroblasts and fibroblast numbers; format: cell-based, human
Experimental: Human smooth muscle cells HIAS119, kindly provided by Dr. E. Levine, The Wistar Institute, were isolated from large blood vessels and maintained in medium M199, supplemented with 10% FCS, 2 mM L-glutamine, and 50 μg/ml bovine hypothalamus extract (Oda, D. et al, 1998 In Vitro Cell. Dev. Biol. Anim., 34, 46–52). Fibroblasts at 8×10^5/ml were embedded in collagen type I (Organogenesis, Canton, Mass.) to a final concentration of 0.9 to 1.1 mg/ml in DMEM supplemented with 50 μM vitamin C (Sigma), 1.66 mM L-glutamine (GIBCO-BRL), and 1% FCS. The suspension was neutralized, pH 7.2, using 7.5% sodium bicarbonate. Chambered slides, Lab-Tek 8 wells (Nunc International, Rochester, N.Y.), were filled with 0.2 ml of the collagen and cell suspension. […]
as §1

Laminin-2: matrix protein Laminin-2 α2β1γ1 (Life Technologies)
control of growth and differentiation of colonic epithelium (colonic epithelial cells [1]; coating of artificial stroma, quantitative analysis of growth fractions): stimulated cell growth | survival of epithelial cells by day 5 (colonic epithelial cells [1]; laminin bound to plastic of culture dishes): survived only with Laminin-2 | growth of HT29 cells [2]: better growth

autocrine motility factor [AMF]
epithelial cell proliferation (enteric epithelial cells): not supported

basic fibroblast growth factor [bFGF]
epithelial cell proliferation (enteric epithelial cells): not supported

endothelin-3 (CTCFTYKDKECVYYCHLDIIW; ends and bridges not checked; cysteine pairing not given here; UniProt P14138 97-117, looked up) [ET-3, endothelin-3 (Peninsula Labs)]
epithelial cell proliferation (enteric epithelial cells): not supported

insulin
epithelial cell proliferation (enteric epithelial cells): not supported

leukemia inhibitory factor [LIF]
3H-thymidine incorporation (colonic epithelial cells [3]; BM+LIF compared with BM only, after 2 days): Significant stimulation | Growth of epithelial cells (colonic epithelial cells [3]; LIF added to base medium, organotypic culture): significantly stimulated | number of colonic epithelial cells (colonic epithelial cells [3]; LIF-containing base medium versus base medium): significantly higher | numbers of BrdU-positive and total epithelial cells (colonic epithelial cells [3]; LIF-stimulated cultures): significantly higher | expression of differentiation marker carbonic anhydrase II (colonic epithelial cells [4]; LIF only added to base medium): did not express | percentage of goblet cells among total cells and per area (colonic epithelial cells [4]; LIF, FIG. 3A): lack of stimulation | relative numbers of goblet cells (of all enterocytes) (colonic epithelial cells [4]; LIF-cultured, p=0.81 versus control base medium): 3.8±3.5% | numbers of goblet cells per area (colonic epithelial cells [4]; LIF-stimulated samples, p=0.13 versus samples without LIF): 2.25±1.66 | relative numbers of enteroendocrine cells (colonic epithelial cells [4]; in the presence of LIF): significantly decreased; also recorded: decrease | collagen constriction by fibroblasts (fibroblasts; LIF in base medium): did not change | fibroblast numbers (fibroblasts; LIF-stimulated cultures versus control): no differences

stem cell factor [SCF]
epithelial cell proliferation (enteric epithelial cells): not supported
